Experimental data as given in patent publication US20250059205A1, “Heterocyclic Compounds and Methods of Use” (AMGEN INC., priority 2021, published 2025).

How the values were obtained:
[1] = system: Phosphorylation of ERK1/2 in A-427 cells; assay: Phospho-ERK1/2 MSD Assay (A-427 cells); assay type: cell-based; conditions: Homo sapiens, A-427, 2 h, 2 h treatment, read-out: p-ERK (A427 cells) IC50
Summary of the method: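 ERK1/2 phosphorylation measured by Meso Scale whole-cell lysate assay after A-427 cells were exposed to a titration of compound for 2 h at 37 °C.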

[2] = molecular target: His-tagged KRAS G12D protein (Homo sapiens, UniProt P01116, G12D); assay: KRAS G12D TR-FRET Assay; assay type: binding
Chain of His-tagged KRAS G12D protein (P01116 1-188 isoform P01116-2 G12D): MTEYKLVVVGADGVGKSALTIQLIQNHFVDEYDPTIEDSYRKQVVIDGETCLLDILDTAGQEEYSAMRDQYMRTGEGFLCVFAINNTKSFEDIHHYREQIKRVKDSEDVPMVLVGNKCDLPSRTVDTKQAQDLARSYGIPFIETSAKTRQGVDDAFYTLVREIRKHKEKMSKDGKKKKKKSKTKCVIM

[3] = system: Phosphorylation of ERK1/2 in AsPC-1 cells; assay: Phospho-ERK1/2 MSD Assay (AsPC-1 cells); assay type: cell-based; conditions: Homo sapiens, ASPC1, 2 h, 2 hours treatment, read-out: p-ERK (AsPC-1 cells) IC50
Summary of the method: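 Read-out: MSD electrochemiluminescent detection of phosphorylated ERK1/2 in whole-cell lysates, fitted to a 4-parameter logistic curve for IC50. Prior to lysis, AsPC-1 cells (25,000 per well) received a 2 h compound dose-response at 37 °C.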

[4] = molecular target: GDP-bound KRAS protein (aa 1-169), containing both G12D and C118A amino acid substitutions (Homo sapiens, UniProt P01116, C118A/G12D); assay: KRAS G12D Coupled Nucleotide Exchange Assay; assay type: biochemical; conditions: 2 h compound pre-incubation
Chain of GDP-bound KRAS protein (aa 1-169), containing both G12D and C118A amino acid substitutions (P01116 1-169 isoform P01116-2 G12D/C118A): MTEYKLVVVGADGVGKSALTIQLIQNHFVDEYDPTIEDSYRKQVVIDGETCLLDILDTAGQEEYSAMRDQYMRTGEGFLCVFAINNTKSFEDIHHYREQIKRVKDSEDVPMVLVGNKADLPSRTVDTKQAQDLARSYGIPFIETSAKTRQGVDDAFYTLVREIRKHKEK
Description: Following compound pre-incubation, purified SOS protein (aa 564-1049) and GTP (Roche 10106399001) were added to the assay wells and incubated for an additional 30 min. […] The assay plates were then read on a PerkinElmer EnVision Multilabel Reader, using AlphaScreen® technology, and data were analyzed using a 4-parameter logistic model to calculate IC50 values.

| Compound | IC50 [1] [nM] | IC50 [2] [nM] | IC50 [3] [nM] | Avg 2 h Coupled Exchange IC50 [4] [nM] |
| --- | --- | --- | --- | --- |
| C#Cc1c(F)ccc2cc(O)cc(-c3cc4nc(OC[C@@]56CCCN5C[C@H](F)C6)nc(N5C[C@H]6CC[C@@H](C5)N6)c4cc3F)c12 [Example 181, 4-(4-((1R,5S)-3,8-diazabicyclo[3.2.1]octan-3-yl)-6-fluoro-2-(((2R,7aS)-2-fluorotetrahydro-1H-pyrrolizin-7a(5H)-yl)methoxy)quinazolin-7-yl)-5-ethynyl-6-fluoronaphthalen-2-ol] | 3 | 1 | 18 | 1 |
| C#Cc1cccc2cc(O)cc(-c3cc4nc(OC[C@@]56CCCN5C[C@H](F)C6)nc(N5C[C@H]6CC[C@@H](C5)N6)c4cc3F)c12 [Example 182, 4-(4-((1R,5S)-3,8-diazabicyclo[3.2.1]octan-3-yl)-6-fluoro-2-(((2R,7aS)-2-fluorotetrahydro-1H-pyrrolizin-7a(5H)-yl)methoxy)quinazolin-7-yl)-5-ethynylnaphthalen-2-ol] | 4 | 1 | 33 | 2 |
| C#Cc1cccc2cc(O)cc(-c3c(F)cc4c(N5C[C@H]6C[C@@H](C5)N6)nc(OC[C@@]56CCCN5C[C@H](F)C6)nc4c3F)c12 [Example 183, 4-(4-((1R,5S)-3,6-diazabicyclo[3.1.1]heptan-3-yl)-6,8-difluoro-2-(((2R,7aS)-2-fluorotetrahydro-1H-pyrrolizin-7a(5H)-yl)methoxy)quinazolin-7-yl)-5-ethynylnaphthalen-2-ol] | 1480 | 2 | 5400 | 4 |
| C#Cc1cccc2cc(O)cc(-c3ccc4c(N5C[C@H]6CC[C@@H](C5)N6)nc(OC[C@@]56CCCN5C[C@H](F)C6)nc4c3F)c12 [Example 185, 4-(4-((1R,5S)-3,8-diazabicyclo[3.2.1]octan-3-yl)-8-fluoro-2-(((2R,7aS)-2-fluorotetrahydro-1H-pyrrolizin-7a(5H)-yl)methoxy)quinazolin-7-yl)-5-ethynylnaphthalen-2-ol] | 1 | 1 | 16 | 1 |
| C#Cc1c(F)ccc2cc(O)cc(-c3ccc4c(N5C[C@H]6CC[C@@H](C5)N6)nc(OC[C@@]56CCCN5C[C@H](F)C6)nc4c3F)c12 [Example 186, 4-(4-((1R,5S)-3,8-diazabicyclo[3.2.1]octan-3-yl)-8-fluoro-2-(((2R,7aS)-2-fluorotetrahydro-1H-pyrrolizin-7a(5H)-yl)methoxy)quinazolin-7-yl)-5-ethynyl-6-fluoronaphthalen-2-ol] | 1 | 3 | 5 | 3 |
| C#Cc1c(F)ccc2cc(O)cc(-c3ccc4c(N5[C@@H]6CC[C@H]5CNC6)nc(OC[C@@]56CCCN5C[C@H](F)C6)nc4c3F)c12 [Example 187, 4-(4-((1R,5S)-3,8-diazabicyclo[3.2.1]octan-8-yl)-8-fluoro-2-(((2R,7aS)-2-fluorotetrahydro-1H-pyrrolizin-7a(5H)-yl)methoxy)quinazolin-7-yl)-5-ethynyl-6-fluoronaphthalen-2-ol] | 5 | 2 | 16 | 1 |
| C#Cc1c(F)ccc2cc(O)cc(-c3c(F)cc4c(N5C[C@@H]6CC[C@H]5CN6)nc(OC[C@@]56CCCN5C[C@H](F)C6)nc4c3F)c12 [Example 188, 4-(4-((15,4S)-2,5-diazabicyclo[2.2.2]octan-2-yl)-6,8-difluoro-2-(((2R,7aS)-2-fluorotetrahydro-1H-pyrrolizin-7a(5H)-yl)methoxy)quinazolin-7-yl)-5-ethynyl-6-fluoronaphthalen-2-ol] | 2 | 2 | 16 | 2 |
| C#Cc1c(F)ccc2cc(O)cc(-c3c(F)cc4c(N5C[C@H]6CC[C@@H](C5)N6)nc(OC[C@@]56CCCN5C[C@H](F)C6)nc4c3F)c12 [Example 189, 4-(4-((1R,5S)-3,8-diazabicyclo[3.2.1]octan-3-yl)-6,8-difluoro-2-(((2R,7aS)-2-fluorotetrahydro-1H-pyrrolizin-7a(5H)-yl)methoxy)quinazolin-7-yl)-5-ethynyl-6-fluoronaphthalen-2-ol] | 1 | 4 | 2 | 3 |
| C#Cc1cccc2cc(O)cc(-c3c(F)cc4c(N5C[C@H]6CC[C@@H](C5)N6)nc(OC[C@@]56CCCN5C[C@H](F)C6)nc4c3F)c12 [Example 190, 4-(4-((1R,5S)-3,8-diazabicyclo[3.2.1]octan-3-yl)-6,8-difluoro-2-(((2R,7aS)-2-fluorotetrahydro-1H-pyrrolizin-7a(5H)-yl)methoxy)quinazolin-7-yl)-5-ethynylnaphthalen-2-ol] | 1 | 4 | 4 | 5 |
| C#Cc1cccc2cc(O)cc(-c3ccc4c(N5C[C@H]6CC[C@@H](C5)N6)nc(OC[C@@]56CCCN5C[C@H](F)C6)nc4c3C)c12 [Example 191, 4-(4-((1R,5S)-3,8-diazabicyclo[3.2.1]octan-3-yl)-2-(((2R,7aS)-2-fluorotetrahydro-1H-pyrrolizin-7a(5H)-yl)methoxy)-8-methylquinazolin-7-yl)-5-ethynylnaphthalen-2-ol] | 4 | 3 | 38 | 4 |
| Cc1c(Cl)cc2[nH]ncc2c1-c1ccc2c(N3C[C@H]4CC[C@@H](C3)N4)nc(OC[C@@]34CCCN3C[C@H](F)C4)nc2c1F [Example 192, 4-((1R,5S)-3,8-Diazabicyclo[3.2.1]octan-3-yl)-7-(6-chloro-5-methyl-1H-indazol-4-yl)-8-fluoro-2-(((2R,7aS)-2-fluorotetrahydro-1H-pyrrolizin-7a(5H)-yl)methoxy)quinazoline] | 150 | 4 | 532 | 2 |
| Fc1c(-c2c(C3CC3)ccc3[nH]ncc23)ccc2c(N3C[C@H]4CC[C@@H](C3)N4)nc(OC[C@@]34CCCN3C[C@H](F)C4)nc12 [Example 193, 4-((1R,5S)-3,8-diazabicyclo[3.2.1]octan-3-yl)-7-(5-cyclopropyl-1H-indazol-4-yl)-8-fluoro-2-(((2R,7aS)-2-fluorotetrahydro-1H-pyrrolizin-7a(5H)-yl)methoxy) quinazoline] | 482 | 15 | 1080 | 10 |
| Fc1c(-c2c(C(F)(F)F)ccc3[nH]ncc23)ccc2c(N3C[C@H]4CC[C@@H](C3)N4)nc(OC[C@@]34CCCN3C[C@H](F)C4)nc12 [Example 194, 4-((1R,5S)-3,8-diazabicyclo[3.2.1]octan-3-yl)-8-fluoro-2-(((2R,7aS)-2-fluorotetrahydro-1H-pyrrolizin-7a(5H)-yl)methoxy)-7-(5-(trifluoromethyl)-1H-indazol-4-yl)quinazoline] | 843 | 14 | 815 | 10 |
| Cc1ccc2[nH]ncc2c1-c1ccc2c(N3C[C@H]4CC[C@@H](C3)N4)nc(OC[C@@]34CCCN3C[C@H](F)C4)nc2c1F [Example 195, 4-((1R,5S)-3,8-diazabicyclo[3.2.1]octan-3-yl)-8-fluoro-2-(((2R,7aS)-2-fluorotetrahydro-1H-pyrrolizin-7a(5H)-yl)methoxy)-7-(5-methyl-1H-indazol-4-yl)quinazoline] | 2380 | 40 | 2670 | 17 |
| Fc1c(-c2c(Cl)ccc3[nH]ncc23)ccc2c(N3C[C@H]4CC[C@@H](C3)N4)nc(OC[C@@]34CCCN3C[C@H](F)C4)nc12 [Example 196, 4-((1R,5S)-3,8-diazabicyclo[3.2.1]octan-3-yl)-7-(5-chloro-1H-indazol-4-yl)-8-fluoro-2-(((2R,7aS)-2-fluorotetrahydro-1H-pyrrolizin-7a(5H)-yl)methoxy) quinazoline] | 1360 | 37 | 2310 | 20 |
| N#Cc1ccc2[nH]ncc2c1-c1ccc2c(N3C[C@H]4CC[C@@H](C3)N4)nc(OC[C@@]34CCCN3C[C@H](F)C4)nc2c1F [Example 197, 4-(4-((1R,5S)-3,8-Diazabicyclo[3.2.1]octan-3-yl)-8-fluoro-2-(((2R,7aS)-2-fluorotetrahydro-1H-pyrrolizin-7a(5H)-yl)methoxy)quinazolin-7-yl)-1H-indazole-5-carbonitrile] | 4030 | 108 | > 10000 | 54 |
| C=C(C)c1ccc2[nH]ncc2c1-c1ccc2c(N3C[C@H]4CC[C@@H](C3)N4)nc(OC[C@@]34CCCN3C[C@H](F)C4)nc2c1F [Example 198, 4-((1R,5S)-3,8-Diazabicyclo[3.2.1]octan-3-yl)-8-fluoro-2-(((2R,7aS)-2-fluorotetrahydro-1H-pyrrolizin-7a(5H)-yl)methoxy)-7-(5-(prop-1-en-2-yl)-1H-indazol-4-yl)quinazoline] | 5270 | 42 | 2930 | 18 |
